Laboratory results published in ChEMBL document CHEMBL3046846, “Synthesis of N-Alkyl-2, 3-dimethyl-5-[N-(5-halo-2-methylphenyl)carbamoyl]-6-pyrazinecarboxamides and Their Herbicidal Activity” (J Pestic Sci, 1997).

Tests used:
Veronica persica [1] = assay: Herbicidal activity against Veronica persica at 5000 g/ha after 2 weeks; format: functional
Veronica persica [2] = assay: Herbicidal activity against Veronica persica at 500 g/ha after 2 weeks; format: functional
Echinochloa crus-galli [3] = assay: Herbicidal activity against Echinochloa crus-galli (barnyard grass) at 500 g/ha after 2 weeks; format: functional
Xanthium strumarium [4] = assay: Herbicidal activity against Xanthium strumarium (cocklebur) 500 g/ha after 2 weeks; format: functional
Abutilon theophrasti [5] = assay: Herbicidal activity against Abutilon theophrasti (velvetleaf) at 500 g/ha after 2 weeks; format: functional
Abutilon theophrasti [6] = assay: Herbicidal activity against Abutilon theophrasti (velvetleaf) at 250 g/ha after 2 weeks; format: functional
Triticum aestivum [7] = assay: Herbicidal activity against Triticum aestivum (wheat) at 250 g/ha after 2 weeks; format: organism-based; settings: in vivo, 336 h
Galium spurium [8] = assay: Herbicidal activity against Galium spurium var. echinospermon (Wally.) Hayek at 500 g/ha after 2 weeks; format: functional
Avena fatua [9] = assay: Herbicidal activity against Avena fatua at 5000 g/ha after 2 weeks; format: functional
Galium spurium [10] = assay: Herbicidal activity against Galium spurium var. echinospermon (Wally.) Hayek at 5000 g/ha after 2 weeks; format: functional
Glycine max [11] = assay: Herbicidal activity against Glycine max (soybean) at 250 g/ha after 2 weeks; format: organism-based; settings: in vivo, 336 h
Abutilon theophrasti [12] = assay: Herbicidal activity against Abutilon theophrasti (velvetleaf) at 5000 g/ha after 2 weeks; format: functional
Xanthium strumarium [13] = assay: Herbicidal activity against Xanthium strumarium (cocklebur) 5000 g/ha after 2 weeks; format: functional
Veronica persica [14] = assay: Herbicidal activity against Veronica persica at 250 g/ha after 2 weeks; format: functional
Glycine max [15] = assay: Herbicidal activity against Glycine max (soybean) at 500 g/ha after 2 weeks; format: organism-based; settings: in vivo, 336 h
Triticum aestivum [16] = assay: Herbicidal activity against Triticum aestivum (wheat) at 5000 g/ha after 2 weeks; format: ADME, organism-based; settings: in vivo, 336 h
Echinochloa crus-galli [17] = assay: Herbicidal activity against Echinochloa crus-galli (barnyard grass) at 5000 g/ha after 2 weeks; format: functional
Avena fatua [18] = assay: Herbicidal activity against Avena fatua at 500 g/ha after 2 weeks; format: functional
Avena fatua [19] = assay: Herbicidal activity against Avena fatua at 250 g/ha after 2 weeks; format: functional
Xanthium strumarium [20] = assay: Herbicidal activity against Xanthium strumarium (cocklebur) 250 g/ha after 2 weeks; format: functional
Echinochloa crus-galli [21] = assay: Herbicidal activity against Echinochloa crus-galli (barnyard grass) at 250 g/ha after 2 weeks; format: functional
Glycine max [22] = assay: Herbicidal activity against Glycine max (soybean) at 5000 g/ha after 2 weeks; format: organism-based; settings: in vivo, 336 h
Galium spurium [23] = assay: Herbicidal activity against Galium spurium var. echinospermon (Wally.) Hayek at 250 g/ha after 2 weeks; format: functional
Triticum aestivum [24] = assay: Herbicidal activity against Triticum aestivum (wheat) at 500 g/ha after 2 weeks; format: ADME, organism-based; settings: in vivo, 336 h

| SMILES | Activity (Veronica persica [1]) [%] | Activity (Veronica persica [2]) [%] | Activity (Echinochloa crus-galli [3]) [%] | Activity (Abutilon theophrasti [5]) [%] | Activity (Abutilon theophrasti [6]) [%] | Activity (Triticum aestivum [7]) [%] | Activity (Galium spurium [8]) [%] | Activity (Avena fatua [9]) [%] | Activity (Galium spurium [10]) [%] | Activity (Glycine max [11]) [%] | Activity (Abutilon theophrasti [12]) [%] | Activity (Xanthium strumarium [13]) [%] | Activity (Veronica persica [14]) [%] | Activity (Glycine max [15]) [%] | Activity (Triticum aestivum [16]) [%] | Activity (Echinochloa crus-galli [17]) [%] | Activity (Avena fatua [18]) [%] | Activity (Avena fatua [19]) [%] | Activity (Xanthium strumarium [20]) [%] | Activity (Glycine max [22]) [%] | further results |
| --- | --- | --- | --- | --- | --- | --- | --- | --- | --- | --- | --- | --- | --- | --- | --- | --- | --- | --- | --- | --- | --- |
| Cc1ccc(F)cc1NC(=O)c1nc(C)c(C)nc1C(=O)NC(C)(C)C | 95 | 70 | <10 | <10 | <10 | < 10 | <10 | 95 | 10 | < 10 | 95 | 95 | <10 | < 10 | 30 | 70 | <10 | <10 | <10 | < 10 | Activity (Xanthium strumarium [4]): <10%; Activity (Echinochloa crus-galli [21]): <10%; Activity (Galium spurium [23]): <10%; Activity (Triticum aestivum [24]): < 10% |
| CC[C@@H](C)NC(=O)c1nc(C)c(C)nc1C(=O)Nc1cc(F)ccc1C | 95 | 95 | 30 | 95 | 30 | < 10 | 30 | 30 | 70 | < 10 | 95 | 70 | 30 | < 10 | 50 | 30 | <10 | <10 | <10 | < 10 | Activity (Xanthium strumarium [4]): 50%; Activity (Echinochloa crus-galli [21]): <10%; Activity (Galium spurium [23]): <10%; Activity (Triticum aestivum [24]): < 10% |
| Cc1ccc(F)cc1NC(=O)c1nc(C)c(C)nc1C(=O)NCCC(C)C | 95 | – | – | – | – | – | – | 30 | <10 | – | 95 | <10 | – | – | 10 | 30 | – | – | – | < 10 | – |
| Cc1ccc(F)cc1NC(=O)c1nc(C)c(C)nc1C(=O)NCC(C)C | 95 | 95 | <10 | 70 | 30 | 10 | <10 | 50 | 30 | < 10 | 95 | 95 | 95 | < 10 | 30 | 30 | 10 | <10 | <10 | < 10 | Activity (Xanthium strumarium [4]): 95%; Activity (Echinochloa crus-galli [21]): <10%; Activity (Galium spurium [23]): <10%; Activity (Triticum aestivum [24]): 10% |
| CCCCNC(=O)c1nc(C)c(C)nc1C(=O)Nc1cc(F)ccc1C | 95 | 95 | 10 | <10 | <10 | < 10 | <10 | <10 | 30 | < 10 | 95 | 50 | 95 | < 10 | 30 | 70 | <10 | <10 | <10 | < 10 | Activity (Xanthium strumarium [4]): <10%; Activity (Echinochloa crus-galli [21]): <10%; Activity (Galium spurium [23]): <10%; Activity (Triticum aestivum [24]): 30% |
| CC[C@H](C)NC(=O)c1nc(C)c(C)nc1C(=O)Nc1cc(F)ccc1C | 95 | 70 | <10 | <10 | <10 | < 10 | <10 | 50 | 95 | < 10 | 70 | 95 | 70 | < 10 | 30 | 70 | <10 | <10 | <10 | < 10 | Activity (Xanthium strumarium [4]): <10%; Activity (Echinochloa crus-galli [21]): <10%; Activity (Galium spurium [23]): <10%; Activity (Triticum aestivum [24]): < 10% |
| CCCCCNC(=O)c1nc(C)c(C)nc1C(=O)Nc1cc(Cl)ccc1C | <10 | – | – | – | – | – | – | <10 | <10 | – | <10 | <10 | – | – | < 10 | <10 | – | – | – | < 10 | – |
| CC[C@H](C)NC(=O)c1nc(C)c(C)nc1C(=O)Nc1cc(Cl)ccc1C | 95 | 95 | <10 | <10 | <10 | < 10 | <10 | 30 | 50 | < 10 | 95 | 95 | 95 | < 10 | 30 | 95 | <10 | <10 | <10 | < 10 | Activity (Xanthium strumarium [4]): <10%; Activity (Echinochloa crus-galli [21]): <10%; Activity (Galium spurium [23]): <10%; Activity (Triticum aestivum [24]): < 10% |
| Cc1ccc(Cl)cc1NC(=O)c1nc(C)c(C)nc1C(=O)NC(C)(C)C | 95 | 70 | <10 | <10 | <10 | < 10 | <10 | <10 | 30 | < 10 | 95 | 95 | 10 | < 10 | 10 | 70 | <10 | <10 | <10 | < 10 | Activity (Xanthium strumarium [4]): <10%; Activity (Echinochloa crus-galli [21]): <10%; Activity (Galium spurium [23]): <10%; Activity (Triticum aestivum [24]): < 10% |
| CCCCNC(=O)c1nc(C)c(C)nc1C(=O)Nc1cc(Cl)ccc1C | 95 | 50 | <10 | <10 | <10 | < 10 | <10 | <10 | 30 | < 10 | 95 | 50 | 10 | < 10 | 30 | 50 | <10 | <10 | <10 | < 10 | Activity (Xanthium strumarium [4]): <10%; Activity (Echinochloa crus-galli [21]): <10%; Activity (Galium spurium [23]): <10%; Activity (Triticum aestivum [24]): < 10% |
| CNC(=O)c1nc(C)c(C)nc1C(=O)Nc1cc(F)ccc1C | 50 | – | – | – | – | – | – | <10 | <10 | – | <10 | <10 | – | – | < 10 | <10 | – | – | – | < 10 | – |
| CCCCCNC(=O)c1nc(C)c(C)nc1C(=O)Nc1cc(F)ccc1C | 30 | – | – | – | – | – | – | <10 | <10 | – | 30 | <10 | – | – | < 10 | 30 | – | – | – | < 10 | – |
| CNC(=O)c1nc(C)c(C)nc1C(=O)Nc1cc(Cl)ccc1C | 95 | – | – | – | – | – | – | <10 | 10 | – | <10 | <10 | – | – | 10 | 10 | – | – | – | < 10 | – |
| CCC(C)NC(=O)c1nc(C)c(C)nc1C(=O)Nc1cc(F)ccc1C (racemic) | 95 | 95 | <10 | 95 | 95 | < 10 | <10 | 30 | 95 | < 10 | 95 | 95 | 95 | < 10 | 50 | 30 | <10 | <10 | <10 | < 10 | Activity (Echinochloa crus-galli [21]): <10%; Activity (Galium spurium [23]): <10%; Activity (Triticum aestivum [24]): 30% |
| Cc1ccc(Cl)cc1NC(=O)c1nc(C)c(C)nc1C(=O)NCCC(C)C | 95 | – | – | – | – | – | – | 30 | 10 | – | 95 | 30 | – | – | < 10 | 70 | – | – | – | < 10 | – |
| CCNC(=O)c1nc(C)c(C)nc1C(=O)Nc1cc(F)ccc1C | 95 | – | – | – | – | – | – | 10 | <10 | – | 50 | 70 | – | – | < 10 | <10 | – | – | – | < 10 | – |
